Broadly, the solubility (kinetic) is the concentration staying in solution when a stock, usually in DMSO, is diluted into the medium.

Data on 52 molecules can be found in PubChem BioAssay AID1996.

The structures appear in SMILES notation. Values after ≈ are worked out from the molar mass of the structure shown.

For the series the following is noted: buffer; pH 7.4; 200.0 µM.
As for `Cc1cc(C(=O)NCCN2CCOCC2)c2ccccc2n1`, the solubility (kinetic) is above 44.9 µg/mL.

As to `O=C(COc1ccccc1)Nc1ccc(C(=O)N2CCCC2)cc1`, the solubility (kinetic) is 34.1 µg/mL (≈ 105 µM). As for `O=C(NCCCO)c1cc2ccccc2[nH]1`, the figure is above 32.7 µg/mL. `CSc1cccc(NC(=O)COC(=O)c2ccccn2)c1` gave a solubility (kinetic) above 45.4 µg/mL. As to `CC(=O)N(CCC1(C(C)C)CCOC(C)(C)C1)C(C)c1cccs1` (configuration not stated), the kinetic solubility stood at 51.1 µg/mL (≈ 145 µM).

With `COc1ccccc1CNC(=O)COC(=O)Cc1cccs1`, the solubility (kinetic) is above 47.9 µg/mL. Take `Cc1csc(NC(=O)c2ccc3nc[nH]c3c2)n1`: the kinetic solubility is above 38.7 µg/mL.

Consider `CC(NC(=O)c1ccccc1Cl)C1CC2CCC1C2` (configuration not stated), for which the kinetic solubility stood at 19.7 µg/mL (≈ 70.9 µM).

`Cn1cccc1C(=O)C(=O)Nc1ccccc1C(F)(F)F` gave a kinetic solubility of 5 µg/mL (≈ 16.9 µM).

For the molecule `CCCC(=O)Nc1nnc(-c2ccc3c(c2)OCCO3)o1`, the solubility (kinetic) is above 43.4 µg/mL. The result for `CC1(C)Cc2c(c(-c3ccccc3)nc3sc4c(=O)[nH]c(=S)[nH]c4c23)CO1` reads 10.5 µg/mL (≈ 26.5 µM). `COC(=O)c1ccc(NC(=S)NC2CC2)cc1`: the solubility (kinetic) is above 37.5 µg/mL.

The molecule `CC(=Nc1ccccc1N)c1c(O)n(C)c(=O)[nH]c1=O` showed a solubility (kinetic) above 41.1 µg/mL. As for `CN(NC(=O)c1ccccc1F)c1ccc([N+](=O)[O-])cn1`, the figure is above 43.5 µg/mL; as for `CC1CC(C)CN(S(=O)(=O)c2ccc(C(=O)N(C)Cc3ccccc3)cc2)C1` (configuration not stated), 13.7 µg/mL (≈ 34.2 µM); as for `O=C(NCc1ccccc1)c1cccc(S(=O)(=O)N2CCCCC2)c1`, 7.6 µg/mL (≈ 21.2 µM). With `CCN(C(=O)CSc1ncccn1)C1CCS(=O)(=O)C1` (configuration not stated), the solubility (kinetic) was above 47.3 µg/mL. Consider `Cn1c2ccc(F)cc2c2nc3ccccc3nc21`, for which the solubility (kinetic) is 0.7 µg/mL (≈ 2.79 µM). The result for `CC(=O)COC(=O)C1=NN(c2ccccc2)C(=O)CC1` reads above 41.1 µg/mL; that for `Cc1ccc(C(=O)N2CCCC(Nc3ccc(F)c(F)c3)C2)cn1` (configuration not stated), above 49.7 µg/mL. As for `COc1ccc(CCNC(=O)c2ccccc2)cc1`, the figure is above 38.3 µg/mL; as for `O=C(CSc1ncnc2ccccc12)N1CCNC1=O`, above 43.2 µg/mL; as for `O=C(NCCO)c1cc([N+](=O)[O-])cc2c1C=Cc1ccccc1O2`, 35.3 µg/mL (≈ 108 µM). As for `Nc1cccc(C(=O)O)c1`, the kinetic solubility was above 20.6 µg/mL.

In turn, `COc1ccc(CN2CCSc3sccc3C2=O)cc1` yielded a solubility (kinetic) above 45.8 µg/mL. As for `Cc1ccc(C(=O)NC(=S)N2CCCC2)cc1`, the figure is above 37.3 µg/mL. As for `Cc1onc(-c2c(Cl)cccc2Cl)c1CO/N=C(\C#N)c1c(Cl)cccc1Cl`, the figure is below 0.3 µg/mL; as for `Cc1ccc(-c2csc(N=C(N)N)n2)c(C)c1`, 8 µg/mL (≈ 32.5 µM); as for `COc1ccc(CCCC(=O)Nc2cc(C)ccc2OC)cc1`, 20 µg/mL (≈ 63.8 µM). `O=C(CNC(=O)c1ccccc1F)NCc1ccccn1` returned a kinetic solubility above 43.1 µg/mL. The molecule `COCC(=O)N(Cc1cc2cc(C)ccc2[nH]c1=O)c1cccc(C)c1C` showed a solubility (kinetic) of 12.3 µg/mL (≈ 33.7 µM). In turn, `CN(Cc1cccs1)C(=O)CNC(=O)c1ccco1` registered a solubility (kinetic) above 41.7 µg/mL. In the case of `CC(C)(C)NC(=O)NC(=O)CN1CCc2ccccc21`, the solubility (kinetic) amounted to 27.5 µg/mL (≈ 99.9 µM). As for `O=C(CCCNC(=O)c1ccc(Cl)cc1)Nc1ncccc1O`, the figure is above 50.1 µg/mL. For `CCCOc1cccc(C(=O)Nc2cccc3ncccc23)c1`, the kinetic solubility was found to be 7.6 µg/mL (≈ 24.8 µM). The result for `Cc1cc2c(NCc3ccccc3)ncnc2s1.Cl` reads 41.7 µg/mL. As to `Cc1nc2sc(C(=O)Nc3ccccc3)c(N)c2c(C)c1[N+](=O)[O-]`, the kinetic solubility is 0.8 µg/mL (≈ 2.34 µM). In turn, `OCCN1c2ccccc2CCc2ccccc21` returned a kinetic solubility of 21.5 µg/mL (≈ 89.8 µM).

Regarding `N#C/C(=C\c1cccnc1)C(=O)Nc1ccc(S(N)(=O)=O)cc1`, the solubility (kinetic) was determined as 36.6 µg/mL (≈ 111 µM). For `Clc1ccc(Oc2ccccc2)c2ncccc12`, the solubility (kinetic) is 10.7 µg/mL (≈ 41.8 µM). On to `O=C1NC(c2ccc(F)cc2)Oc2ccccc21` (configuration not stated), for which the solubility (kinetic) was determined as 6.4 µg/mL (≈ 26.3 µM). Molecule `COC(=O)c1c(C)oc(C)c1S(=O)(=O)Nc1ccc(C(C)C)cc1` displayed a solubility (kinetic) of 7.2 µg/mL (≈ 20.5 µM). As for `CCc1ccc(NC(=O)NC2CCCCCCC2)cc1`, the figure is below 0.3 µg/mL; as for `COc1ncnc(OC)c1S(=O)(=O)NCc1ccccc1`, above 46.4 µg/mL; as for `CC(C)[C@H](NC(=O)OCc1ccccc1)C(=O)OCC(=O)c1ccccc1`, 16.1 µg/mL (≈ 43.6 µM). In turn, `Cc1cc(C)c(OCC(=O)Nc2nc3ccccc3[nH]2)c(C)c1` had a kinetic solubility of 0.3 µg/mL (≈ 0.97 µM). As for `Cc1cc(C(=O)N2CCN(c3ccccc3Cl)CC2)c(C)o1`, the figure is above 47.8 µg/mL. The result for `CCOC(=O)C1CCN(CCC(=O)Nc2cc(C)cc(C)c2)CC1` reads above 49.9 µg/mL.

In the case of `CC(C)N1C(=O)CCC1C(=O)N1CCN(c2ccc(F)cc2)CC1` (configuration not stated), the solubility (kinetic) was above 50 µg/mL.

As for `O=C(Nc1ccc(Cl)c([N+](=O)[O-])c1)c1ccco1`, the kinetic solubility was determined as 10.6 µg/mL (≈ 39.8 µM). As for `COC(=O)C1CSC(c2ccc(Cl)cc2)N1C(=O)c1ccccc1` (configuration not stated), the figure is 34.1 µg/mL (≈ 94.2 µM); as for `CC(C)C(=O)N1CCN(c2ccccc2NC(=S)NC(=O)/C=C/c2ccco2)CC1`, 1.6 µg/mL (≈ 3.75 µM).
